Assay results taken from patent US20200188540A1, “CONFORMATIONALLY STRAINED TRANS-CYCLOALKENES FOR RADIOLABELING” (UNIVERSITY OF DELAWARE, priority 2015, published 2020).
Values belong to the molecule of their own block, whether it stands above or below them.

What was measured:
[1] = Stopped-flow kinetic analysis of Diels-Alder reaction of sTCO diastereomers with PEGylated tetrazine 11; settings: for rate constant k2 with tetrazine 11: 55:45 MeOH:water at 25° C., stopped flow; for Mean k2: average of four sTCO concentrations, spread printed in cells below; for Mean k2 / k2 / kobs: tetrazine 11 0.05 mM, water:methanol 45:55, 25° C.; for kobs: in s-1 (unit assumed)
Protocol: Stopped flow kinetic analysis was used to measure the rate of the Diels-Alder reaction between tetrazine derivative 11 and anti- and syn-diastereomers of sTCO (4 and 5, respectively). […] The latter is the fastest rate constant that has been described for a bioorthogonal reaction. For the present study, the inventors used stopped flow analysis to compare the relative rate of the syn- and anti-diastereomers 5 and 4 with tetrazine 11 in mixed organic/aqueous media (55:45 MeOH:water at 25° C.). As expected, the rates in MeOH:water were ˜9 fold slower than the measurements made in purely aqueous media, but still extremely rapid. The rate constant for the syn-diastereomer 5 with tetrazine 11 was k2 3.7×10^4 (+/−0.1×10^3) M^−1s^−1, and the anti-diastereomer 4 reacted with a rate constant k2 3.3×10^4 (+/−0.1×10^3) M^−1s^−1. Because the syn-diastereomer was more reactive it was chosen for further development
The second order rate constant was measured under pseudo-first order conditions using an excess of the appropriate sTCO diastereomer (4 or 5), and by following the exponential decay of absorbance due to the tetrazine chromophore of 11 at 298 nm using an SX 18MV-R stopped-flow spectrophotometer (Applied Photophysics Ltd.). For each run, equal volumes of 45:55 water:methanol solutions of sTCO and PEGylated tetrazine 11 were mixed in the stopped flow device. Reactions were carried out with tetrazine 11 at 0.05 mM and final concentrations of 0.245, 0.49, 0.98 and 1.47 mM for the syn-diastereomer 5. Similarly, reactions were carried out with tetrazine 11 at 0.05 mM and final concentrations of 0.25, 0.50, 1.00 and 1.50 mM for the anti-diastereomer 4. A total of 400 data points were recorded over a period of 1 second, and each sample was performed in sextuplicate at 298 K. The kobs was determined by nonlinear regression analysis of the data points using Prism software (v. 6.00, GraphPad Software Inc.).
The reaction between sTCOs 4 & 5 and the PEGylated tetrazine 11 was measured under pseudo-first order conditions in water:methanol 45:55 by following the exponential decay of the tetrazine at 298 nm over time using an SX 18MV-R stopped flow spectrophotometer (Applied Photophysics Ltd.). Solutions were prepared for the sTCO concentrations see table below water:methanol 45:55) and the tetrazine (0.1 mM in water:methanol 45:55) and thermostatted in the syringes of the spectrophotometer before measuring. 400 data points were recorded over a period of 1 second, and performed in sextuplicate at 298 K. The kobs was determined by nonlinear regression analysis of the data points using Prism software (v. 6.00, GraphPad Software Inc.).
• PEGylated tetrazine 11 at 25° C. in water:methanol (45:55) measured under pseudo first order conditions using SX 18MV-R stopped flow spectrophotometer. Values were determined from an average of four runs. Synthesis and Characterization of a Conformationally Strained Trans-Cyclooctene with a Cis-Fused Cyclopentane Ring

[2] = In vitro stability in 1× PBS buffer; format: physicochemical; settings: 37° C.; for radiochemical purity after incubation in 1× PBS: 2 hours
Protocol: (§1) An aliquot of the solution (˜25 μCi) was taken out and loaded on HPLC at 1 h and 2 h time points for analysis. ^18F-9 was also incubated in FBS at 37° C. and after 1 h, an aliquot of the solution (˜25 μCi) was taken out and added to an equal volume of TFA. Similarly, ^18F-15 was also incubated in FBS at 37° C., and at 2 and 4 h time points, aliquots of the solution (˜25 μCi) were taken and added to an equal volume of TFA. For each sample, the mixture was centrifuged at 14000 rpm for 5 min. The supernatant was then diluted with 1 mL water and loaded on C18 Sep-Pak. After washing with 1 mL water, the cartridge was eluted with 0.5 mL acetonitrile. The water fraction and acetonitrile fraction were combined and loaded on HPLC for analysis

[3] = In vitro stability in fetal bovine serum (FBS); format: in vitro ADME; settings: 37° C.
Protocol: as §1

[4] = microPET imaging in normal (non-tumor bearing) nude mice; format: in vivo; settings: normal nude mouse
Protocol: The inventors also performed microPET imaging with a normal (non-tumor bearing) nude mouse that had been injected with ^18F-9. […] The inventors also analyzed the clearance of the compound obtained by combining ^18F-9 with 11. This Diels-Alder conjugate—and analog of ^18F-15 that lacks the RGD moiety—still remained in the blood circulatory system after 4 hours. The blood uptake was 2.4% ID/g at 4 h post injection. The inventors have previously reported ^18F-labeled RGD probes derived from trans-cyclooctene 1.
No background correction was performed.

in vivo = settings: mouse, iv, 3.7 MBq (100 uCi), total radioactivity
Protocol: (§2) The localization of ^18F-15 in human U87MG tumor-bearing mice (n=5) was performed by static microPET scans at multiple time-point post tail vein injection. Selected decay-corrected coronal images at different time points were obtained after injection of 3.7 MBq (100 μCi) of ^18F-15. […] Data are expressed as average +/−SD.
(§3) Animal procedures were performed according to a protocol approved by the UNC Institutional Animal Care and Use Committee. PET scans and image analysis were performed using a small animal PET scanner. Human U87MG tumor-bearing mice were anesthetized using 2% isoflurane and injected with 3.7 MBq (100 μCi) of ^18F-15 via the tail vein. At 0.5, 1.0, 2.0, and 4.0 h post injection, static emission scans were acquired for 10 min. Normal nude mice were injected with 3.7 MBq (100 μCi) of the Diels-Alder conjugate obtained by combining ^18F-9 and 11), or in a separate experiment by injecting only ^18F-9 using the same protocol. Raw PET images were reconstructed using 2D ordered subset expectation maximization (OSEM) algorithm. No background correction was performed. Regions of interest (ROI) were manually drawn over the tumor and other organs on the decay corrected coronal images. Based on the assumption that the tissue density is 1 g/mL, the ROIs were converted to % ID/g by dividing dose per gram at ROI by injected dose.
(§4) Quantitative data were expressed as mean±SD. Means were compared using one-way ANOVA and Student's t test. P values<0.05 were considered statistically significant.

human U87MG tumor = test: in vivo
Protocol: as §2, §3, §4

SMILES: OC[C@H]1[C@H]2CC/C=C/CC[C@@H]12 [Compound 5, (rel-1R,8S,9S,4E)-Bicyclo[6.1.0]non-4-ene-9-ylmethanol]
rate constant k2 with tetrazine 11 [1]: 3.7×10^4 (+/−0.1×10^3) M^−1s^−1 | Mean k2 [1]: 36,100 M^−1s^−1 | k2 ([1]; resulting sTCO 0.245 mM): 34347 M⁻¹ s⁻¹ | kobs ([1]; resulting sTCO 0.245 mM): 8.415 | k2 ([1]; resulting sTCO 0.49 mM): 37571 M⁻¹ s⁻¹ | kobs ([1]; resulting sTCO 0.49 mM): 18.41 | k2 ([1]; resulting sTCO 0.98 mM): 35796 M⁻¹ s⁻¹ | kobs ([1]; resulting sTCO 0.98 mM): 35.08 | k2 ([1]; resulting sTCO 1.47 mM): 36857 M⁻¹ s⁻¹ | kobs ([1]; resulting sTCO 1.47 mM): 54.18

SMILES: OCC1C2CCC=CCCC12 (stereo not drawn) [Compound 4]
rate constant k2 with tetrazine 11 [1]: 3.3×10^4 (+/−0.1×10^3) M^−1s^−1 | Mean k2 [1]: 31,700 M^−1s^−1 | k2 ([1]; resulting sTCO 0.25 mM): 29832 M⁻¹ s⁻¹ | kobs ([1]; resulting sTCO 0.25 mM): 7.458 | k2 ([1]; resulting sTCO 0.5 mM): 31680 M⁻¹ s⁻¹ | kobs ([1]; resulting sTCO 0.5 mM): 15.84 | k2 ([1]; resulting sTCO 1 mM): 32510 M⁻¹ s⁻¹ | kobs ([1]; resulting sTCO 1 mM): 32.51 | k2 ([1]; resulting sTCO 1.5 mM): 32653 M⁻¹ s⁻¹ | kobs ([1]; resulting sTCO 1.5 mM): 48.98

radiopurity after incubation in 1× PBS ([2]; 1 hour): 97.5% | radiochemical purity after incubation in 1× PBS [2]: 97.3% | radiochemical purity retained in fetal bovine serum ([3]; 1 hour): 74% | time to clearance by the gallbladder, kidney and liver [4]: ≤ 2 h
SMILES: FCCOCCOCCOC[C@@H]1[C@@H]2CC/C=C/CC[C@@H]21 [^18F-9]
kinetics with diphenyl-s-tetrazines ([1]; general statement of reactivity): > 10^4 M^−1s^−1

SMILES: N=C(N)NCCC[C@@H]1NC(=O)C(CCCCNC(=O)CCOCCOCCOCCOCCOCCOCCOCCOCCOCCOCCOCCOCCNC(=O)OCc2ccc(C3=NNC(c4ccccc4)=C4CC[C@H]5[C@@H](CCC34)[C@H]5COCCOCCOCCF)cc2)NC(=O)[C@@H](Cc2ccc(O)cc2)NC(=O)[C@H](CC(=O)O)NC(=O)CNC1=O (stereo partly drawn) [^18F-15]
radiochemical purity after incubation in 1× PBS [2]: 98.5% | tissue uptake at 0.5 h (in vivo; tumor (U87MG)): 5.3 %ID/g | tissue uptake at 1 h (in vivo; tumor (U87MG)): 6.9 %ID/g | tissue uptake at 2 h (in vivo; tumor (U87MG)): 7.5 %ID/g | tissue uptake at 4 h (in vivo; tumor (U87MG)): 8.9 %ID/g | tissue to tissue ratio at 4 h (in vivo; tumor and kidney): 2.4 | tissue to tissue ratio at 4 h (in vivo; tumor and liver): 1.6 | tumor uptake relative to other major organs (human U87MG tumor; 4 h post injection): 1.6-2.4 fold | tracer uptake in tumor, blocking experiment (human U87MG tumor; co-injected with non-radio labeled cRGDyK (200 μg), 1 h post injection): 4.8+/−0.3% | purity in fetal bovine serum ([3]; 2 hours post incubation): 96.7% | purity in fetal bovine serum ([3]; 4 hours post incubation): 94.5%
